# In ChEMBL document CHEMBL5726613, “5-(N-fused tricyclic aryl tetrahydroisoquinolin-6-yl) pyridin-3-yl acetic acid derivatives as inhibitors of human immunodeficiency virus replication” (2019):
# Experiment: Inhibition of HIV Replication: A recombinant NL-RLuc proviral clone was constructed in which a section of the nef gene from NL4-3 was replaced with the Renilla Luciferase gene. This virus is fully infectious and can undergo multiple cycles of replication in cell culture. In addition, the luciferous reporter provides a simple and easy method for quantitating the extent of virus growth and consequently, the antiviral activity of test compounds. The plasmid pNLRLuc contains the proviral NL-Rluc DNA cloned into pUC18 at the PvuII site. The NL-RLuc virus was prepared by transfection of 293T cells with the plasmid pNLRLuc. Transfections were performed using the LipofectAMINE PLUS kit from Invitrogen (Carlsbad, Calif.) according to the manufacturer and the virus generated was titered in MT-2 cells. For susceptibility analyses, the titrated virus was used to infect MT-2 cells in the presence of compound, and after 5 days of incubation, cells were processed and quantitated for virus growth by the amount of expressed luciferase. Assay media was RPMI 1640 supplemented with 10% heat inactivated fetal bovine serum (FBS), 100 units/ml penicillin G/100 units/ml streptomycin, 10 mM HEPES buffer pH 7.55 and 2 mM L-glutamine. The results from at least 2 experiments were used to calculate the EC50 values. Luciferase was quantitated using the Dual Luciferase kit from Promega (Madison, Wis.). Susceptibility of viruses to compounds was determined by incubation in the presence of serial dilutions of the compound. The 50% effective concentration (EC50) was calculated by using the exponential form of the median effect equation where (Fa)=1/[1+(ED50/drug conc.)m] (Johnson Va., Byington R T. Infectivity Assay. In Techniques in HIV Research. ed. Aldovini A, Walker B D. 71-76. New York: Stockton Press. 1990).
# Type: cell-based
# Details: HEK-293T
row,Structure (SMILES),EC50 [nM]
1,Cc1nc(C)c([C@H](OC(C)(C)C)C(=O)O)c(N2CCC(C)(C)CC2)c1-c1ccc2c(c1)CCN(c1ncnc3c1oc1ncccc13)C2,1
2,Cc1nc(C)c([C@H](OC(C)(C)C)C(=O)O)c(N2CCC(C)(C)CC2)c1-c1ccc2c(c1)CCN(c1ncnc3c1oc1ccc(F)cc13)C2,2
3,Cc1nc(C)c([C@H](OC(C)(C)C)C(=O)O)c(N2CCC(C)(C)CC2)c1-c1ccc2c(c1)CCN(c1ccc3ccc4cccnc4c3n1)C2,3
4,Cc1nc(C)c([C@H](OC(C)(C)C)C(=O)O)c(N2CCC(C)(C)CC2)c1-c1ccc2c(c1)CCN(c1ncnc3c1[nH]c1ccccc13)C2,24
5,Cc1ccc2c(c1)[nH]c1nc(N3CCc4cc(-c5c(C)nc(C)c([C@H](OC(C)(C)C)C(=O)O)c5N5CCC(C)(C)CC5)ccc4C3)nc(Cl)c12,5
6,Cc1ccc2[nH]c3c(N4CCc5cc(-c6c(C)nc(C)c([C@H](OC(C)(C)C)C(=O)O)c6N6CCC(C)(C)CC6)ccc5C4)ncnc3c2c1,13
7,CCOc1cccc2oc3c(N4CCc5cc(-c6c(C)nc(C)c([C@H](OC(C)(C)C)C(=O)O)c6N6CCC(C)(C)CC6)ccc5C4)ncnc3c12,1
8,Cc1nc(C)c([C@H](OC(C)(C)C)C(=O)O)c(N2CCC(C)(C)CC2)c1-c1ccc2c(c1)CCN(c1ncnc3sc4ccccc4c13)C2,5
9,CCn1c2ccc(C)cc2c2ncnc(N3CCc4cc(-c5c(C)nc(C)c([C@H](OC(C)(C)C)C(=O)O)c5N5CCC(C)(C)CC5)ccc4C3)c21,45
10,Cc1nc(C)c([C@H](OC(C)(C)C)C(=O)O)c(N2CCC(C)(C)CC2)c1-c1ccc2c(c1)CCN(c1nc3ccccc3c3ccccc13)C2,31
11,Cc1nc(C)c([C@H](OC(C)(C)C)C(=O)O)c(N2CCC(C)(C)CC2)c1-c1ccc2c(c1)CCN(c1ncnc3c1oc1cccc(F)c13)C2,3
12,Cc1nc(C)c([C@H](OC(C)(C)C)C(=O)O)c(N2CCC(C)(C)CC2)c1-c1ccc2c(c1)CCN(c1ncnc3c1oc1ccccc13)C2,1
13,Cc1nc(C)c([C@H](OC(C)(C)C)C(=O)O)c(N2CCC(C)(C)CC2)c1-c1ccc2c(c1)CCN(c1ncnc3c1sc1ccccc13)C2,4
14,Cc1nc(C)c([C@H](OC(C)(C)C)C(=O)O)c(N2CCC(C)(C)CC2)c1-c1ccc2c(c1)CCN(c1ncnc3[nH]c4ccccc4c13)C2,5
